According to paper PMC11042245, “Discovery of novel SOS1 inhibitors using machine learning” (RSC Medicinal Chemistry, 2024):
Where two headings read alike, the source gives them in different places.

Key:
SOS1 = settings: cited from earlier work; for IC50: read-out: Actual IC50
KRAS G12C/SOS1 = biological target: T1, KRAS G12C/SOS1 (Homo sapiens, UniProt Q07889); test: KRAS G12C/SOS1 PPI homogeneous time-resolved fluorescence (HTRF) assay; format: binding; settings: for inhibition at 0.5 µg/mL / inhibition at 10 µg/mL / inhibition at 40 µg/mL / inhibition at 50 µg/mL: read-out: Inhibition rate (%); for inhibition at 25 µg/mL: read-out: Inhibition rate at 25 μg mL^−1 (%)
T1 construct: purchased Cytoskeleton (SOS1); AntibodySystem (KRAS G12C)
T1 sequence (Q07889 564-1049 limits assumed): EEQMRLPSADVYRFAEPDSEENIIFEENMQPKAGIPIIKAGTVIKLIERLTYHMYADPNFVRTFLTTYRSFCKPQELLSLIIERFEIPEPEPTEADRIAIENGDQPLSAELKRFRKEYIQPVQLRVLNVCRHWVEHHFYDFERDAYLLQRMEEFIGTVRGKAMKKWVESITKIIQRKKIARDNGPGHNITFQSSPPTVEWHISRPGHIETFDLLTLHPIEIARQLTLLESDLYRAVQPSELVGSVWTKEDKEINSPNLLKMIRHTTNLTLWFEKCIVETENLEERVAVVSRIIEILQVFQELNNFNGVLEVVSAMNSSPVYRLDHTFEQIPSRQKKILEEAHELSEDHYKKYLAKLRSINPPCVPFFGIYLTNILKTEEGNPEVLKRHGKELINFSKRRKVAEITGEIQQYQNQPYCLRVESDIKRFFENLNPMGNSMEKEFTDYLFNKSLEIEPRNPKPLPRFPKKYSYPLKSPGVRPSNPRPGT
Experimental: All the test compounds were provided by the CNCL (https://www.cncl.org.cn/). […] The percentage inhibition was calculated by comparison with the buffer control group. The IC50 value was calculated by GraphPad Prism software in inhibitor versus normalized response (variable slope) mode.

[1] = 10% reserved data (Table S3), ref ChEMBL database (version 31)
[2] = converted from μg mL^−1, read-out: IC50 calculated using the molecular weight of each compound
[3] = dose-response 0.5–50 μg mL^−1, read-out: IC50 (μg mL^−1)

## Cc1nc(N[C@H](C)c2cc(N)cc(C(F)(F)F)c2)c2cc([C@H]3CC[C@H](C(=O)N(C)C)CC3)c(C)cc2n1 [CHEMBL4554249]
SOS1; [1]
  Actual pChEMBL: 8.70

## COc1cc2nc(C)nc(N[C@H](C)c3cc(N)cc(C(F)(F)F)c3)c2cc1O[C@H]1CCN(C(C)=O)C1 [CHEMBL4435672]
SOS1; [1]
  Actual pChEMBL: 8.52

## COc1cc2nc(C)nc(N[C@H](C)c3cc(N)cc(C(F)(F)F)c3)c2cc1C1CCC(C(=O)N2CCOCC2)CC1 (some centres unmarked) [CHEMBL4451252]
SOS1; [1]
  Actual pChEMBL: 7.60

## Cc1nc(N[C@H](C)c2cccc(C(F)(F)F)c2)c2cc(-c3cc4n(n3)CCC(=O)N4)ccc2n1 [CHEMBL4570224]
SOS1; [1]
  Actual pChEMBL: 7.52

## Cc1cccc([C@@H](C)Nc2nc(C)nc3cc(C)c(-c4ccc(=O)n(C)c4)cc23)c1 [CHEMBL4473214]
SOS1; [1]
  Actual pChEMBL: 7.44

## COCC(=O)N1CCC(c2cc3c(N[C@H](C)c4cccc(C)c4)nc(C)nc3cc2C)CC1 [CHEMBL4448274]
SOS1; [1]
  Actual pChEMBL: 7.47

## Cc1cccc([C@@H](C)Nc2nc(C)nc3ccc(C4CCS(=O)(=O)CC4)cc23)c1 [CHEMBL4443395]
SOS1; [1]
  Actual pChEMBL: 7.54

## CC(C)c1ccc(S(=O)(=O)Nc2cnc(N3CCCC3)c(C(=O)O)c2)cc1 [CL01545365]
KRAS G12C/SOS1; [2]
  IC50: 53.7 µM
KRAS G12C/SOS1; [3]
  IC50: 53.7 µM
KRAS G12C/SOS1
  inhibition at 0.5 µg/mL: 0.8 ± 1.1%
  inhibition at 10 µg/mL: 31.9 ± 2.8%
  inhibition at 40 µg/mL: 66.6 ± 0.1%
  inhibition at 50 µg/mL: 72.3 ± 2.7%
  inhibition at 25 µg/mL: 53.8 ± 1.6%

## COc1cc2nc(C)nc(N[C@H](C)c3cccc(C(F)(F)F)c3)c2cc1-c1ccc(C(=O)N(C)C)cn1 [CHEMBL4515122]
SOS1; [1]
  Actual pChEMBL: 7.46

## Cc1nc(N[C@H](C)c2cc(N)cc(C(F)(F)F)c2C)c2cc(C3CCS(=O)(=O)CC3)ccc2n1 [CHEMBL4441820]
SOS1; [1]
  Actual pChEMBL: 8.40

## CC(=O)N[C@@H]1CCN(c2cc3c(NC(C)c4ccc(-c5ccccc5CN(C)C)s4)nc(C)nc3cn2)C1 (some centres unmarked) [CHEMBL4463000]
SOS1; Table 3
  Actual pChEMBL: 7.82
  IC50: 0.015 µM

## COc1cc2nc(C)nc(N[C@H](C)c3cc(N)cc(C(F)(F)F)c3F)c2cc1C1CCC(C(=O)N(C)C)CC1 (some centres unmarked) [CHEMBL4572922]
SOS1; [1]
  Actual pChEMBL: 7.46

## COc1cc2nc(C)nc(N[C@H](C)c3ccccc3)c2cc1OC [CHEMBL5087955]
SOS1; Table 3
  Actual pChEMBL: 6.34
  IC50: 0.453 µM

## CCn1ccc(-c2cc3c(N[C@H](C)c4cc(N)cc(C(F)(F)F)c4)nc(C)nc3cc2C)cc1=O [CHEMBL4551748]
SOS1; [1]
  Actual pChEMBL: 8.30

## CCC(C)NC(=O)c1ccc(Cn2c(=O)c3cc(OC)c(OC)cc3n(Cc3ccccc3F)c2=O)cc1 (centres unmarked) [CL00817024]
KRAS G12C/SOS1
  inhibition at 25 µg/mL: 2 ± 0.8%

## Cc1nc(N[C@H](C)c2cccc(C(F)(F)F)c2)c2cc([C@]3(O)CC[C@H](C(=O)N(C)C)CC3)ccc2n1 [CHEMBL4533487]
SOS1; [1]
  Actual pChEMBL: 7.57

## CCOCCCN(C)C1CCN(c2ncc(NC(=O)c3ccc(C)cc3)cc2C(=O)O)CC1 [CL00838284]
KRAS G12C/SOS1
  inhibition at 25 µg/mL: 25.3 ± 0.3%

## COc1cc2nc(C)nc(N[C@H](C)c3cccc(C(F)(F)F)c3)c2cc1-c1ccc(C(=O)N(C)CCO)cc1 [CHEMBL4453639]
SOS1; [1]
  Actual pChEMBL: 7.40

## Cc1nc(N[C@H](C)c2cc(N)cc(C(F)(F)F)c2)c2cc(-c3cnn(CC(=O)N(C)C)c3)ccc2n1 [CHEMBL4546387]
SOS1; [1]
  Actual pChEMBL: 8.10

## CCOc1cc2c(N[C@H](C)c3ccc(F)cc3)nc(C)nc2cn1 [CHEMBL4456281]
SOS1; Table 3
  Actual pChEMBL: 5.03
  IC50: 9.3 µM

## COCC(=O)N1CCC(c2ccc3nc(C)nc(N[C@H](C)c4cc(N)cc(C(F)(F)F)c4)c3c2)CC1 [CHEMBL4469357]
SOS1; [1]
  Actual pChEMBL: 8.70

## CC(C)c1cccc2cc3c(nc12)OCCN(CCc1ccc2c(c1)OCO2)C3 [CL01132463]
KRAS G12C/SOS1
  inhibition at 25 µg/mL: -6.5 ± 2.5%

## CONC(=O)CC(C)c1cc2c(N[C@H](C)c3cccc(C(F)(F)F)c3)nc(C)nc2cc1C (some centres unmarked) [CHEMBL4464090]
SOS1; [1]
  Actual pChEMBL: 8.10

## COc1cc2nc(C)nc(N[C@H](C)c3cccc(C(F)(F)CO)c3)c2cc1C1=CCC(C(=O)N(C)C)CC1 (some centres unmarked) [CHEMBL4529467]
SOS1; [1]
  Actual pChEMBL: 8.70

## COc1cc2nc(C)nc(N[C@H](C)c3cc(N)cc(C(F)(F)F)c3F)c2cc1O[C@H]1CCOC1 [CHEMBL4572076]
SOS1; [1]
  Actual pChEMBL: 8.30

## Cc1nc(N[C@H](C)c2cc(N)cc(C(F)(F)F)c2)c2cc(C3CCN(C(=O)CN(C)C)CC3)ccc2n1 [CHEMBL4539190]
SOS1; [1]
  Actual pChEMBL: 8.52

## Cc1cccc([C@@H](C)Nc2nc(C)nc3ccc([C@H]4CC[C@H](C(=O)N5CC(C#N)C5)CC4)cc23)c1 [CHEMBL4463184]
SOS1; [1]
  Actual pChEMBL: 7.44

## Cc1ccccc1C1=CCN(c2ncc(NS(=O)(=O)c3ccc(C(C)C)cc3)cc2C(=O)O)CC1 [CL01545464]
KRAS G12C/SOS1; [2]
  IC50: 66.3 µM
KRAS G12C/SOS1; [3]
  IC50: 66.3 µM
KRAS G12C/SOS1
  inhibition at 0.5 µg/mL: 3.4 ± 1.8%
  inhibition at 10 µg/mL: 24.2 ± 1.4%
  inhibition at 40 µg/mL: 55.3 ± 3.2%
  inhibition at 50 µg/mL: 60.5 ± 4%
  inhibition at 25 µg/mL: 42.9 ± 3.4%

## COc1cc2nc(C)nc(N[C@H](C)c3cccc(C)c3)c2cc1-c1ccc(=O)[nH]c1 [CHEMBL4455684]
SOS1; [1]
  Actual pChEMBL: 7.55

## COc1cc2nc(C)nc(N[C@H](C)c3cccc(C(F)(F)F)c3F)c2cc1C1(O)CCC(C(=O)N(C)C)CC1 (some centres unmarked) [CHEMBL4459389]
SOS1; [1]
  Actual pChEMBL: 8.30

## Cc1ccc(S(=O)(=O)Nc2cnc(N3CCCC3)c(C(=O)O)c2)c(C)c1 [CL01545355]
KRAS G12C/SOS1; [2]
  IC50: 94.6 µM
KRAS G12C/SOS1; [3]
  IC50: 94.6 µM
KRAS G12C/SOS1
  inhibition at 0.5 µg/mL: -1.6 ± 0.2%
  inhibition at 10 µg/mL: 17.9 ± 3.3%
  inhibition at 40 µg/mL: 53.3 ± 0.5%
  inhibition at 50 µg/mL: 61.6 ± 4%
  inhibition at 25 µg/mL: 38 ± 3.3%

## Cc1nc(N[C@H](C)c2cc(N)cc(C(F)(F)F)c2)c2cc(C3CCC(C(=O)N4CCOCC4)CC3)ccc2n1 (some centres unmarked) [CHEMBL4540213]
SOS1; [1]
  Actual pChEMBL: 8.70

## Cc1cccc([C@@H](C)Nc2nc(C)nc3ccc(C4CC[S+]([O-])CC4)cc23)c1 (some centres unmarked) [CHEMBL4561965]
SOS1; [1]
  Actual pChEMBL: 7.66

## CC(=O)N1CCC(O)(c2ccc3nc(C)nc(N[C@H](C)c4cccc(C)c4)c3c2)CC1 [CHEMBL4524954]
SOS1; [1]
  Actual pChEMBL: 7.85

## Cc1cccc([C@@H](C)Nc2nc(C)nc3ccc(C4CCOCC4)cc23)c1 [CHEMBL4583745]
SOS1; [1]
  Actual pChEMBL: 7.37

## COc1cc2nc(C)nc(N[C@H](C)c3cccc(C(F)(F)F)c3)c2cc1OC [CHEMBL5084571]
SOS1; Table 3
  Actual pChEMBL: 6.97
  IC50: 0.106 µM

## COCCN(C)C(=O)C1CCC(c2cc3c(N[C@H](C)c4cc(N)cc(C(F)(F)F)c4)nc(C)nc3cc2OC)CC1 (some centres unmarked) [CHEMBL4513254]
SOS1; [1]
  Actual pChEMBL: 8.52

## Cc1ccc(S(=O)(=O)Nc2cnc(N3CC=C(c4ccccc4C)CC3)c(C(=O)O)c2)c(C)c1 [CL01545444]
KRAS G12C/SOS1; [2]
  IC50: 103 µM
KRAS G12C/SOS1; [3]
  IC50: 103 µM
KRAS G12C/SOS1
  inhibition at 0.5 µg/mL: 1.5 ± 1.1%
  inhibition at 10 µg/mL: 14.5 ± 3.3%
  inhibition at 40 µg/mL: 45.5%
  inhibition at 50 µg/mL: 49.9 ± 0.5%
  inhibition at 25 µg/mL: 31.1 ± 1.4%

## CCOc1cc2c(N[C@H](C)c3ccccc3)nc(C)nc2cn1 [CHEMBL4545109]
SOS1; Table 3
  Actual pChEMBL: 5.69
  IC50: 2.06 µM

## COc1cc2nc(C)nc(N[C@H](C)c3cccc(S(N)(=O)=O)c3)c2cc1OC [CHEMBL5085531]
SOS1; Table 3
  Actual pChEMBL: 7.25
  IC50: 0.056 µM

## Cc1nc(N[C@H](C)c2cccc(C(F)F)c2F)c2cc3c(cc2n1)OC[C@H]1CN(C(=O)C2(C#N)CC2)CCN31 [compound 37]
SOS1; external validation data
  Actual pChEMBL value: 8.33
